Data from patent publication US20110229411A1, “USE OF P2X7 PATHWAY FOR ASSESSING THE SENSITIVITY OF A SUBJECT TO A CANCER TREATMENT” (INSTITUT GUSTAVE ROUSSY, priority 2008, published 2011).

Assays:
CT26 colon cancer cells = test: ATP assays on doxorubicin-treated tumor cells; assay type: cell-based, mouse; settings: CT26, doxorubicin 20 μM
Method: (§1) FIG. 3: Identification of AT P release as a limiting factor of anti-cancer vaccination by dying CT 26 cells. FIG. 3a-b Idem as in FIGS. 1a and b, but using the mouse colon cancer CT26 exposed to doxorubicin. Data of one representative experiment out of three are depicted. FIG. 3. c-d. […] Mice were immunized with PBS or dying CT26 tumor cells. Dying CT26 were first treated with doxorubicin for 24 hours and were then incubated with antimycin A/deoxyglucose (A/D) for 20 min. Cells were washed after A/D exposure and before subcutaneous inoculation (c). Alternatively, dying CT26 were inoculated alone or together with oxiATP (d). Seven days later, mice (15 per group in a total of 3 distinct experiments) were inoculated with live syngeneic tumor cells and tumor growth was monitored. * p<0.05.
Plates were read in a Fluostar luminometer (BMG Labtech).

CT26 cells [1] = test: Cell death induction for vaccination, FACS analysis of Annexin V+ DAPI+ cells; assay type: cell-based, mouse; settings: CT26, 20 μM doxorubicin, 24 hours
Method: Anti cancer vaccination was assessed using a previously described setting (Casares et al., 2005; Obeid et al., 2007). CT26 cells were cultured with either PBS or 20 μM doxorubicin, and MCA205 with either PBS or 1 μM mitoxantrone for 24 h. All these treatments led to ˜50% of Annexin V^+ DAPI^+ cells, as assessed by FACS analysis at 24 hours. After careful washes, cells were resuspended in sterile PBS. CT26 cells were incubated in the presence or in the absence of antimycin A and deoxyglucose (2 μg/ml and 30 mM, respectively) for 20 min, or in the presence or in the absence of Oxi-ATP ([…]). After 3 washes, 3×10^6 dying CT26 cells (or 3×10^5 MCA205 cells) were injected subcutaneously into the left flank of mice. In some experiments, 100 μg of IL-1Ra (Anakinra) was injected along with the dying cells. Seven days later, mice were rechallenged into the right flank with 5×10^5 live CT26 cells (or, alternatively, 3.10^4 live MCA205 cells). Tumor growth was then monitored weekly.

[2] = test system: T cell priming for IFNγ production; test: Priming assay: dying EG7 cells injected into the footpad, IFNγ secretion of restimulated popliteal lymph node cells; assay type: in vivo, mice
Method: 1.10^6 CT26, EG7, or B16F10 cells were either left untreated or treated with doxorubicin (20 μM) or oxaliplatin (5 μg/ml) for 24 h. Cells were then injected into the footpad of syngenic mice. In some experiments, 20 or 100 μg of IL-1Ra (Anakinra) or 250 ng of recombinant murine IL-1β (or 250 ng of IL-6 or 50 ng of IL-12) was injected along with dying tumor cells into the footpad of mice. Alternatively, DC were cocultured with EG7 cells for 2 hours, followed by the purification of CD11c^+ cells with anti-CD11c mAb coupled to magnetic beads (Miltenyi Biotec, Paris, France) and injection of these purified DC into the footpad. Five days later, gangliocytes from popliteal lymph nodes were harvested, seeded in 96 U-well plates (3.10^5 cells per well), and restimulated with 1 mg/ml OVA protein. Restimulation with MCA205 or CT26 cells was performed using 3×10^4 tumor cells killed by 5 min heating at 42° C. followed by 1 cycle of freezing/thawing in liquid nitrogen. For B16F10, restimulation was achieved using gp100 peptide as previously described (Overwijk et al., 1998). As a positive control of T cell priming, mice were injected with OVA protein (1 mg) (or gp100 for B16F10) and the association of CpG (10 μg) and Poly I:C (5 μg). For CT26 priming experiments, cell lysate plus LPS (250 ng) was used as a positive control. Supernatants were harvested 72 hours later, and IFNγ secretion was assessed by ELISA. Alternatively, cells were stimulated with PMA (10 ng/ml) and ionomycin (1 μg/ml) for 1 h, followed by the addition of brefeldin A (10 μg/ml for 6 h at 37° C.) (Apetoh et al., 2007), surface staining with Abs specific for CD3, CD4 or CD8, fixation and permeabilization (Cytofix/cytoperm kit) and then labeled with antibodies specific for IFNγ. Immunofluorescence was analyzed on a LSRII flow cytometer (BD Biosciences) with FACSDiva software.

CT26 cells [3] = test: Anti-cancer vaccination with dying CT26 cells and rechallenge with live tumor cells; assay type: in vivo, mice; settings: doxorubicin-treated CT26, rechallenge with live cells seven days later
Method: as §1
Anti cancer vaccination was assessed using a previously described setting (Casares et al., 2005; Obeid et al., 2007). CT26 cells were cultured with either PBS or 20 μM doxorubicin, and MCA205 with either PBS or 1 μM mitoxantrone for 24 h. All these treatments led to ˜50% of Annexin V^+ DAPI^+ cells, as assessed by FACS analysis at 24 hours. After careful washes, cells were resuspended in sterile PBS. […] Tumor growth was then monitored weekly.

[4] = test system: T cell priming for IFNγ production; test: Priming assay with dying CT26 cells, restimulation with CT26 or MCA205 tumor lysate, IFNγ production; assay type: in vivo; settings: IL-1Ra 100 μg co-inoculated, WT mice
Method: FIG. 14: The immunogenicity of cell death requires active IL-1β. Mice were immunized with PBS or dying CT26 tumor cells treated with doxorubicin or freeze thawing and LPS. Dying CT26 were co-inoculated together with IL-1Ra (100 μg) into the […] of WT mice. Five days later, mice (n=5 mice/group) were sacrificed to harvest popliteal lymph nodes for in vitro restimulation with CT26 or MCA205 tumor lysate and assessment of IFNγ production. *p<0.05.
1.10^6 CT26, EG7, or B16F10 cells were either left untreated or treated with doxorubicin (20 μM) or oxaliplatin (5 μg/ml) for 24 h. Cells were then injected into the footpad of syngenic mice. In some experiments, 20 or 100 μg of IL-1Ra (Anakinra) or 250 ng of recombinant murine IL-1β (or 250 ng of IL-6 or 50 ng of IL-12) was injected along with dying tumor cells into the footpad of mice. Alternatively, DC were cocultured with EG7 cells for 2 hours, followed by the purification of CD11c^+ cells with anti-CD11c mAb coupled to magnetic beads (Miltenyi Biotec, Paris, France) and injection of these purified DC into the footpad. […] Supernatants were harvested 72 hours later, and IFNγ secretion was assessed by ELISA. […] Immunofluorescence was analyzed on a LSRII flow cytometer (BD Biosciences) with FACSDiva software.

EL4 thymoma tumors = test: Chemotherapy of EL4 tumors established in mice; assay type: in vivo; settings: co-treatment, data not shown
Method: (§2) FIG. 17. The anti-cancer activity of oxaliplatin depends on P2X7 and the NALP3 inflammasome. FIG. 17a,b,c. Therapeutic efficacy of oxaliplatin on established tumors depends on the integrity of the immune system on the P2X7/NALP3/casp-1 axis. EL4 thymoma tumors were established in syngenic mice bearing the indicated genotypes (a-c) or injected with anti-CD8 antibody (a). When the tumor reached 70-90mm^2 in size, mice were either left untreated or were treated with oxaliplatin. Each treatment group included 5-6 mice (X±SEM), and each experiment was repeated three times with similar results. * p<0.05. d. Caspase 1 is required for the immune response promoted by oxaliplatin chemotherapy. EG7 tumors established in the thigh were treated with one systemic injection of oxaliplatin. Inguinal lymph node cells were harvested 5 days later, and the gangliocytes were restimulated in vitro. IFNγ secretion was assessed by ELISA. Results (means of triplicates ±SEM, n=3) are representative of one typical experiment out of three. ^*P<0.01. FIG. 17d. The efficacy of anthracyclines against established colon cancer is dependent on IL-1β. CT26 tumors established for 10 days in WT mice were treated with one local injection of doxorubicin in the absence or presence of neutralizing anti-IL-1β Ab (n=10/group, *p<0.05). FIG. 17e. A single-nucleotide polymorphism (SNP) in P2X7 (rs3751143) affects the long-term efficacy of conventional anti-cancer therapy in breast cancer patients. Comparative Kaplan-Meier estimates of time to metastasis in two groups of patients bearing the normal (Glu496Glu) or loss-of-function (Glu496Ala) P2X7 alleles. The time to metastatic progression was analyzed in 225 women with non-metastatic breast cancer who received adjuvant chemotherapy with anthracylines.
Wild type or loss-of-function C57BL/6 mice were injected s.c. with 10^6 EL4 cells into the right flank. Alternatively, wild-type BALB/c mice were injected with 5.10^5 CT26 cells into the right flank. Mice were then randomly assigned to treatment groups of 4-6 mice each. The tumor surface was monitored using a caliper. When tumor size reached 70-90 mm^2 for EL4 (9-12 days post-injection) or 60-80 mm^2 for CT26 (8-10 days post-injection), mice received chemotherapy (Apetoh et al., 2007). Mice bearing EL4 tumors were injected with oxaliplatin (5 mg/kg i.p), while mice bearing CT26 tumors were injected with doxorubicin (50 μl, 4 mM i.t). In some experiments, CT26 tumor-bearing mice received two injections (on day 0 and day 2 after the commencement of chemotherapeutic treatment) of IL-1Ra (McIntyre et al., 1991) (100 μg), anti-IL-1 antibody (100 μg) or hamster serum as a control.

CT26 tumors = test: Chemotherapy of CT26 tumors established in mice; assay type: in vivo; settings: doxorubicin i.t.; 100 μg on day 0 and day 2, WT mice
Method: as §2, with “The efficacy of anthracyclines against established colon cancer is dependent on IL-1β. CT26 tumors established for 10 days in WT mice were treated with one local injection of doxorubicin in the absence or presence of neutralizing anti-IL-1β Ab (n=10/group, *p<0.05). FIG. 17e. A single-nucleotide polymorphism (SNP) in P2X7 (rs3751143) affects the long-term efficacy of conventional anti-cancer therapy in breast cancer patients. Comparative Kaplan-Meier estimates of time to metastasis in two groups of patients bearing the normal (Glu496Glu) or loss-of-function (Glu496Ala) P2X7 alleles.” left out
Wild type or loss-of-function C57BL/6 mice were injected s.c. with 10^6 EL4 cells into the right flank. […] The tumor surface was monitored using a caliper. […]

OT-1 CD8+ T cells = test: In vitro stimulation of OT-1 cells by BM-DC loaded with oxaliplatin-treated EG7; assay type: cell-based, mouse; settings: rIL-1β 100 ng/ml or IL-12 10 ng/ml added to cocultures
Method: (§3) FIG. 15. IL-1β-dependent CTL priming by dying tumor cells in vitro and in vivo. FIG. 15a. MyD88 is required at the level of the host but not that of the APC. DC from WT mice were first loaded with antigen (OVA holoprotein with C/P adjuvant, live or oxaliplatin-treated EG7 cells) and then injected into the footpad of into WT or MyD88^−/− recipients (n=6 mice/group). Five days later, the local immune response was measured as in FIG. 2d,e. Results of one typical experiment out of three are depicted. FIG. 15b. Casp-1 and IL-1β-dependent OT-I priming in vitro. The differentiation of IFNγ producing CD8^+ OT-1 cells was induced by incubating naïve OVA-specific TCR transgenic OT-1 lymphocytes with syngeneic BM-DC (derived from WT or Casp-1^−/− mice) that were loaded with oxaliplatin-treated EG7 for 2 days in vitro. […] Exogenous addition of rIL-1β (100 ng/ml) or IL-12 (10 ng/ml) to cocultures of Casp-1^−/− DC loaded with dying tumor cells and incubated with OT1 restored T cell priming. […] FIG. 15c. Specific and direct polarizing effects of IL-1β on T lymphocytes in vitro. Purified CD3^+ CD8^+ T cells derived from naïve WT mice were stimulated with anti-CD3 and anti-CD28 mAb for 5 days in the presence of the indicated cytokines (10 ng/ml for IL-12p70, 100 ng/ml for IL-1β, IL-6 and TNFα) -and IFNγ production was measured as in FIG. 3b. FIG. 15d. […]

CD3+ CD8+ T cells = test: In vitro stimulation of CD8+ T-cells with anti-CD3 and anti-CD28 mAb plus cytokines; assay type: cell-based, mouse; settings: CD3 plus CD28 cross-linking; 10 ng/ml IL-12p70, 100 ng/ml IL-1β, IL-6, TNFα
Method: as §3

## COc1cccc2c1C(=O)c1c(O)c3c(c(O)c1C2=O)C[C@@](O)(C(=O)CO)C[C@@H]3O[C@H]1C[C@H](N)[C@H](O)[C@H](C)O1 [doxorubicin]
CT26 colon cancer cells
  release of ATP: released ATP
CT26 cells [1]
  Annexin V+ DAPI+ cells: ~50%

## Nc1ncnc2c1ncn2[C@@H](C=O)O[C@@H](C=O)COP(=O)(O)OP(=O)(O)OP(=O)(O)O [oxiATP, 2′,3′-dialdehyde derivative of ATP]
[2]; OVA with PolyI:C+CpG in presence of oxiATP
  T cell priming triggered by OVA protein plus adjuvant: did not affect T cell priming
[2]; cells admixed with oxiATP, footpad, C57Bl/6 mice
  T cell priming by oxaliplatin-treated EG7 cells: abolished T cell priming
CT26 cells [3]
  efficacy of vaccination with dying tumor cells: prevent the efficacy of vaccination

## IL-1Ra: recombinant IL-1 receptor antagonist, Kineret Anakinra (Amgen)
[2]; IL-1Ra co-injected into the footpad
  T cell priming in vivo by oxaliplatin-treated EG7 cells (IFNγ after restimulation with OVA): failed to prime T cells in vivo
[2]; IL-1Ra co-injected, restimulation with PMA-ionomycin, flow cytometry
  cytoplasmic IFNγ staining of CD3+CD8+ T lymphocytes: failed to stain positively for cytoplasmic IFNγ
[4]
  tumor-specific IFNγ response of T cells primed by dying CT26 cells: abolished
EL4 thymoma tumors
  effect on the response of EL4 tumors to oxaliplatin: blunted the response
CT26 tumors
  effect on the response of CT26 tumors to anthracyclines: blunted the response

B1: IL-1β: recombinant mouse IL-1β from R&D Systems (protein)
chain: VPIRQLHYRLRDEQQKSLVLSDPYELKALHLNGQNINQQVIFSMSFVQGEPSNDKIPVALGLKGKNLYLSCVMKDGTPTLQLESVDPKQYPKKKMEKRFVFNKIEVKSKVEFESAEFPNWYISTSQAEHKPVFLGNNSGQDIIDFTMESVSS
[2]; cytokine co-injected with oxaliplatin-treated EG7: rIL-1β 250 ng, rIL-12 50 ng, rIL-6 250 ng per footpad
  T cell priming in Nalp3−/− or Casp1−/− mice: restored deficient T cell priming
OT-1 CD8+ T cells
  priming capacity of Casp-1−/− DC for OT-1 cells (IFNγ): restored the priming capacity
CD3+ CD8+ T cells
  IFNγ production by naive CD3+CD8+ splenic T cells: failed to produce IFNγ, unless IL-113
